For experiment [1], the target named is T1, Alpha-1A adrenergic receptor (Rattus norvegicus, UniProt P43140).
T1 sequence (P43140 whole entry): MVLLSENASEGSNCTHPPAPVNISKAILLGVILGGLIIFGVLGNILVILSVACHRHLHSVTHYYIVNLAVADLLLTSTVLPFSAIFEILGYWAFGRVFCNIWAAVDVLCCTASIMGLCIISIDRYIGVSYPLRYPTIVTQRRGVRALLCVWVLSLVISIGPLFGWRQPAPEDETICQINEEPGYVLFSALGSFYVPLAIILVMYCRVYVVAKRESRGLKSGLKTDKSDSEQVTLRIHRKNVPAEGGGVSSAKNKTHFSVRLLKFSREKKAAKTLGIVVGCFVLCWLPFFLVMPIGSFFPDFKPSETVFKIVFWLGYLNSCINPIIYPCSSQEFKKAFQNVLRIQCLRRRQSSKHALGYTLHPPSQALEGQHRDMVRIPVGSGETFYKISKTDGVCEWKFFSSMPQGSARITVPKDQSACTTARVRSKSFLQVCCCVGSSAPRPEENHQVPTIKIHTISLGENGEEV
In words: Displacement of [3H]prazosin from adrenergic alpha-1A receptor in rat submaxillary gland membranes. Type of experiment: cell membranes, Membrane. For orientation: Loss of bound radioactivity is the signal in a displacement assay; it reports binding, not function.

The target of experiment [2] is T2, Alpha-1B adrenergic receptor (Rattus norvegicus, UniProt P15823).
T2 sequence (P15823 whole entry): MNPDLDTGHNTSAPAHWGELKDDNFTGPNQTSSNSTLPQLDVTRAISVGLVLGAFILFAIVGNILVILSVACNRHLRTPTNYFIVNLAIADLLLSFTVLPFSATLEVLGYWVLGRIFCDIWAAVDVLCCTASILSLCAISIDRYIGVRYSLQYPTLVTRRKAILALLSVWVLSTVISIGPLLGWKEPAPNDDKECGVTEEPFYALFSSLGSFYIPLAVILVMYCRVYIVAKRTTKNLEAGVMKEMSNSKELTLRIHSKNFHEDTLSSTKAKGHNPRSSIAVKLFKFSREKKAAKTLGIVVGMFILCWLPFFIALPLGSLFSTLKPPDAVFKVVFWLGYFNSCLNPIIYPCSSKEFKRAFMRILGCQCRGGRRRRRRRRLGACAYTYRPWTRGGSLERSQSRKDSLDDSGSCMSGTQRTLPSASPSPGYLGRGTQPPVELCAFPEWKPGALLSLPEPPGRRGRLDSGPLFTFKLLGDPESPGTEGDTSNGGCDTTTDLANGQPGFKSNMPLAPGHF
Kind of experiment: Displacement of [3H]prazosin from adrenergic alpha-1B receptor in rat liver membranes. It is filed as cell membranes, Membrane.

Experiment [3] concerns the target T3, Adrenergic receptor alpha-2 (Rattus norvegicus, UniProt P22086+P19328+P22909).
T3 sequence (P22086 whole entry): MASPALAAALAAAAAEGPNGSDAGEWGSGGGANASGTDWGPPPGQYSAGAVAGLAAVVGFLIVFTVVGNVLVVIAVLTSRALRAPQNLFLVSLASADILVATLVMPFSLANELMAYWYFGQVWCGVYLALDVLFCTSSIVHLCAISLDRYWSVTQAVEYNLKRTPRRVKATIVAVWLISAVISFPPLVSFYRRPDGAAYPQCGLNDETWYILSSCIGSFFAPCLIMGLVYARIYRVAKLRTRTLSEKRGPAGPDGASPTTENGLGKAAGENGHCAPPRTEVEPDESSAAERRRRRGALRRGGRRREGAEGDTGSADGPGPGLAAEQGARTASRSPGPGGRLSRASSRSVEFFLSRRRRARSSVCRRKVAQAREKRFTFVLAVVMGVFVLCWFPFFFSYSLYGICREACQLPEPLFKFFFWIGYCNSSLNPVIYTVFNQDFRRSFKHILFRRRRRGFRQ
T3 sequence (P19328 whole entry): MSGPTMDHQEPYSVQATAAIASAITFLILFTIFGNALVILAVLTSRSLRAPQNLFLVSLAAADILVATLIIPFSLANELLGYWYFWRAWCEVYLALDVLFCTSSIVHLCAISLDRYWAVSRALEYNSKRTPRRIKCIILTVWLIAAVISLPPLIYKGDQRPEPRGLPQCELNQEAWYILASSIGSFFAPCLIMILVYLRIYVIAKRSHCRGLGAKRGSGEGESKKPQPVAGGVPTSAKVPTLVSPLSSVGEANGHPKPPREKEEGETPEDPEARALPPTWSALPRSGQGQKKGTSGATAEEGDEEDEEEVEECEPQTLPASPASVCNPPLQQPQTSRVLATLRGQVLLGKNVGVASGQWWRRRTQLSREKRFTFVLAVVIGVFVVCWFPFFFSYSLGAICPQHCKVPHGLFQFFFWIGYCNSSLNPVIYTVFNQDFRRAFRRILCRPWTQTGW
T3 sequence (P22909 whole entry): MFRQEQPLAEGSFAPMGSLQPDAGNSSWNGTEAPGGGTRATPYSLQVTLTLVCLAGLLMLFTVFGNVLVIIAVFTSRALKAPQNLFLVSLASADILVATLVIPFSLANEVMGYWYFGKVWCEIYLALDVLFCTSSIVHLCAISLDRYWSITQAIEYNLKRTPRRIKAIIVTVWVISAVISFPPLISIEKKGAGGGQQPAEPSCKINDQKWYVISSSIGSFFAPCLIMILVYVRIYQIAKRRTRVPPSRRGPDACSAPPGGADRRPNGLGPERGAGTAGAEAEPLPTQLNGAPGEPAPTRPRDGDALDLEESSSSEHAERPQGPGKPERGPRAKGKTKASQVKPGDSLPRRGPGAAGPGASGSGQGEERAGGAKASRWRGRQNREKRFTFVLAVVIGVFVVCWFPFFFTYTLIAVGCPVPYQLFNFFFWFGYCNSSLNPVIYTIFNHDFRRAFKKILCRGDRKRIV
Kind of experiment: Binding affinity to rat adrenergic alpha2 receptor. It is filed as protein assay.

Experiment [4] concerns the target T4, Alpha-1D adrenergic receptor (Homo sapiens, UniProt P25100).
T4 sequence (P25100 whole entry): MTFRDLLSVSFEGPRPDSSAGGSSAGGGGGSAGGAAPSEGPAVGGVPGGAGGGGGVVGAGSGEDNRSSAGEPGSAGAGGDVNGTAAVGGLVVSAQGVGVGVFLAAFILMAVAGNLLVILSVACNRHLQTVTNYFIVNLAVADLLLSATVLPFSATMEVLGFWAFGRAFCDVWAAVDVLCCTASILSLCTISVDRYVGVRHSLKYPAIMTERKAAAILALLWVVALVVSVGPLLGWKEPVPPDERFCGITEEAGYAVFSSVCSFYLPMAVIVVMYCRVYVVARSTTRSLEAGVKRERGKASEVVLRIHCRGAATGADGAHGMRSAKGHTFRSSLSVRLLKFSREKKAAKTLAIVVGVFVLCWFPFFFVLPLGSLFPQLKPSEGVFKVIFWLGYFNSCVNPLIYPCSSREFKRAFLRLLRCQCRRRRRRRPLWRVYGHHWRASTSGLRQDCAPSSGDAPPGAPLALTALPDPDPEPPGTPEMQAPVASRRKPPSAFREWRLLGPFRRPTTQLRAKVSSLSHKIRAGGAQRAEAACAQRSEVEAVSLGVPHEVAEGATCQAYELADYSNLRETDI
In words: Binding affinity to human adrenergic Alpha-1D receptor.

A further experiment deals with Adrenergic receptor beta (Rattus norvegicus, UniProt P18090+P10608+P26255). Kind of experiment: Binding affinity to rat adrenergic beta receptor. Type of experiment: protein assay.

For 11 compounds, Ki results are on record in ChEMBL document CHEMBL1146014, “Design and synthesis of selective alpha1B adrenoceptor antagonists” (Bioorg Med Chem Lett, 2006).

Bounds are passed on as bounds.

As for `c1ccc2c(C3CCN(CCCN4CCCCC4)CC3)noc2c1`, the values for the Ki in experiment [1] and in experiment [2] were 0.057 µM and 0.014 µM, respectively.
In the case of `c1ccc2c(C3CCN(CCCN4CCCCC4)CC3)coc2c1`, the inhibition constant (Ki) (as a rule, the equilibrium dissociation constant of an inhibitor or competing ligand from its target) was 0.06 µM in experiment [1] and 0.0077 µM in experiment [2].
On the same counts, the results for `Cc1[nH]c2ccccc2c1C1CCN(CCCN2CCCCC2)CC1` are 1.9 µM and 0.071 µM.
Take `Oc1nc2ccccc2n1C1CCN(CCCN2CCCCC2)CC1`: the Ki worked out at 0.9 µM in experiment [1] and 0.07 µM in experiment [2].
Turning to `Cl.Cl.c1ccc2c(C3CCN(CCCN4CCCCC4)CC3)c[nH]c2c1`, the inhibitory constant (Ki) in experiment [1] is 0.12 µM; in experiment [3] it was 0.37 µM; in experiment [4] it was 0.069 µM; in experiment [2], 0.003 µM; on Adrenergic receptor beta it was over 1 µM.
On to `Cn1cc(C2CCN(CCCN3CCCCC3)CC2)c2ccccc21`, for which the Ki in experiment [1] was 0.48 µM; in experiment [2] it was 0.06 µM.
Take `Cl.Cl.c1ccc2c(C3CCN(CCCCCN4CCCCC4)CC3)c[nH]c2c1`: the figures for the Ki (in experiment [3]; in experiment [4]; on Adrenergic receptor beta) were 0.355 µM, 0.037 µM and over 1 µM, respectively.
`c1ccc(CC2CCN(CCCN3CCCCC3)CC2)cc1` gave an inhibition constant (Ki) in experiment [2] of 1.12 µM.
With `Fc1ccc2[nH]cc(C3CCN(CCCN4CCCCC4)CC3)c2c1`, the Ki in experiment [1] was 0.69 µM; in experiment [2], 0.016 µM.
As for `Cl.Cl.Fc1ccc2c(C3CCN(CCCN4CCCCC4)CC3)c[nH]c2c1`, the inhibitory constant (Ki) in experiment [3] was 0.14 µM; in experiment [4] it was 0.022 µM; at Adrenergic receptor beta, over 1 µM.
`c1ccc2c(C3CCN(CCCCN4CCCCC4)CC3)c[nH]c2c1`: the Ki in experiment [1] came out at 0.056 µM; in experiment [2], 0.0011 µM.
